pKd: −log10 of the molar value.
Molecular target: T1, IRAK1 (Homo sapiens, UniProt P51617)
T1 construct: active recombinant IRAK1 enzyme
Test: SPR ([…] model); supported by KINOMEscan active-site competition binding and CETSA in A2780 cells

T1 sequence (P51617 whole entry): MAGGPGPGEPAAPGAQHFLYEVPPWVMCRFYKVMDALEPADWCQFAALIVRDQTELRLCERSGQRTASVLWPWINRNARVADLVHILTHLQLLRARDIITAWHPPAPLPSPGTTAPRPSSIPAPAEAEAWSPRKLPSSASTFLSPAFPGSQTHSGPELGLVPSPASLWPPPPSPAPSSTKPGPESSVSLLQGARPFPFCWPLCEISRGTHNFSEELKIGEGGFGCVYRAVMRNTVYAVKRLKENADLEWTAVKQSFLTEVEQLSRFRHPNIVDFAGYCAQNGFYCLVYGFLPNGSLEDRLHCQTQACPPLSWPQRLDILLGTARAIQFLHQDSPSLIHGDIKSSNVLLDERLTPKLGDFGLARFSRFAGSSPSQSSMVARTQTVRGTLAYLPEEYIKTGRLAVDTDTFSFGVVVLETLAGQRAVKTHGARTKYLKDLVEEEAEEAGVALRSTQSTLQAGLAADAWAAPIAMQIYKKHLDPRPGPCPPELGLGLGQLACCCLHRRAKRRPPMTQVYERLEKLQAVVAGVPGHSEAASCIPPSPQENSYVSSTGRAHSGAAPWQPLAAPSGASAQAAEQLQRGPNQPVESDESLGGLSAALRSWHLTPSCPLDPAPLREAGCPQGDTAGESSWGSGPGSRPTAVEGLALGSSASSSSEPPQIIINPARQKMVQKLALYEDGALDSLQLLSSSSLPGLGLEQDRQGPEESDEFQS

pKd: 5.75
SMILES: O=C(NO)c1ccc2[nH]c(=O)c(CCCc3ccccc3)nc2c1 [TCS2210]
